In patent US20070135515A1, “Method for producing sorbicillactone a” (priority 2004, published 2007):
Entries after “also recorded” stand apart in the source; their conditions may differ.

Assays:
neuronal cells = assay: Intracellular calcium level [Ca2+]i in primary neurons (Fura-2 fluorescence ratio 340/380 nm); format: cell-based, rat; conditions: 200 μM stimulant and 2.5 mM Ca2+, without sorbicillactone A
Description: Material: The same materials as described in Perovic et al. (1998, Mech. Ageing Dev. 101:1-19) were used. Fura-2-acetoxymethylester (Fura-2-AM) was obtained from Molecular Probes (Leiden, The Netherlands), Dulbecco's modified Eagle's Medium with 4.5 g/L glucose (DMEM/HG), L-glutamic acid (L-Glu), and serotonin (5-HT) from Sigma-Aldrich (Taufkirchen, Germany) and the antibodies mouse-anti-neurofilament (68 kDa) and mouse-anti-glial-fibrillary-acidic-protein (GFAP) from Roche Diagnostics (Mannheim, Germany). Sorbicillactone A of the batch: 2208/2a was used.
Primary neurons: The cortical cell culture was produced from the brains of 17-18 day-old rat embryos, according to a modified procedure [Freshney (1987) Culture of specific cell types. In: Culture of Animal Cells. A Manual of Basic Technique, A. R. Liss, New York, S. 257-288; Perovic et al. (1994) Eur. J. Pharmacol. (Mol. Pharmacol. Sec.) 288:27-33]. After the isolation, the cerebral-hemispheres were put into Hank's Balanced Salt Solution (HBSS) without Ca^2+ and Mg^2+, and the neuronal cells were subsequently dissociated in HBSS using 0.025% (w/v) trypsin (10 min.; 37° C.). The proteolytic reaction was stopped with 10% (v/v) foetal calf serum (FCS). The single-cell suspensions were centrifuged, and the resulting pellet was taken up into Dulbecco's modified Eagles's Medium with 4.5 g/L glucose (DMEM/HG) (contains 2 mM L-glutamine, 100 mU/L insulin, and 10% (v/v) FCS). The cells were plated in a chamber with poly-L-lysine (5 μg/mL, 300 μl/cm^2) in a cell density of 2.0×10^5 cells/cm^2. After two days the DMEM/HG/10%-FCS-medium was removed and replaced with DMEM/HG/serum-free medium. Two weeks after the isolation, the immune staining took place with anti-neurofilament (68 kDa) as a marker for neurons, and anti-GFAP as a marker for glial cells. The cultures contained >80% neurons; the residual 20% were GFAP-positive cells, mainly astrocytes (Ushijima et al. (1995) Eur. J. Neurosci. 7:1353-9). The neurons were held in an atmosphere of 95% air and 5% CO2 at 37° C.
Loading of neurons with Fura-2-AM: The intracellular Ca^2+-concentration ([Ca^2+]i) was determined by fluorescence measurements. The ratio of the absorption of the Ca^2+-indicator dye Fura-2-AM at 340 and 380 nm (Grynkiewicz et al. (1985) J. Biol. Chem. 260:3440-50) was decisive. The neurons were loaded with 6 μM Fura-2-AM in DMEM/HG/serum-free medium (supplemented with 1% (w/v) bovine serum albumin) at 37° C. for 60 min. After incubation, the cells were washed two times with medium, and further incubated for 45 min at 37° C.
Calcium-calibration curve: A calcium-calibration curve was produced according to the methods of Grynkiewicz et al. (1985, J. Biol. Chem. 260:3440-50). Fluorescence pictures were obtained for each buffer at 340 and 380 nm. The quotient from both fluorescence spectra (340/380 nm) was calculated, and depicted as a calibration curve. The quotient (340/380 nm [ratio-value]) of 1.0 corresponds to 228 nM [Ca^2+]i.
Changes of the calcium level in neurons: In all experimental settings, the cells were first loaded with Fura-2-AM, and subsequently stimulated with different substances (in Locke's solution; 154 mM NaCl; 5.6 mM KCl; 3.6 mM NaHCO3; 5.6 mM glucose, and 10 mM Hepes; pH 7.4; without CaCl2). Sorbicillactone A was dissolved in a concentration of 10 mg/mL in 100% (v/v) DMSO, and stored at −20° C. In the first setting, the neurons were stimulated for 5 min with 0.1% (v/v) DMSO (control); after 10 min 200 μM L-glutamic acid (L-Glu), 200 μM serotonin (5-HT), and 2.5 mM CaCl2 were added to the cells. In a second setting, the effect of L-Glu, 5-HT, and 2.5 mM CaCl2 on the calcium level of pre-incubated neurons (each 5 min with 10 μg/mL sorbicillactone A) was tested. In all experiments, the [Ca^2+]i-level was measured for at least 20-25 min. […]

[1] = Relative activity compared with sorbicillactone A (test not specified)
[2] = tested on: L5178Y-mouse lymphoma cells (ATCC CRL 1722); assay: Apoptosis detection (Cell Death Detection ELISA plus); format: cell-based; conditions: for MW ± SD (OD) / % of the control (negative): 4 hours incubation; for MW ± SD (OD): 405 nm; for % of the control (negative): negative control = 100%
Procedure: Material: RPMI1640-medium, Hepes buffered, was obtained from Sigma-Aldrich (Taufkirchen, Germany), foetal calf serum (FCS) from Gibco (Karlsruhe, Germany), and Cell Death Detection ELISA plus from Roche (Mannheim, Germany, Cat. No. 1774425). Sorbicillactone A of the batch: 2208/2a was used.
Incubation and preparation of the cells: The L5178Y-mouse lymphoma cells (ATCC CRL 1722)) were counted, and adjusted to a number of cells of 10^4 cells/mL. The sorbicillactone-A- and dihydrosorbicillactone-A-stock solution (10 mg/mL in DMSO) was diluted with medium (RPMI/Hepes with 10% FCS) to concentrations of 60, 20, and 6 μg/mL. In a 96-well-culture plate, 100 μl cell suspension (˜10^3 cells) were each pipetted to each of the 100 μl of the different dihydrosorbicillactone-A- and sorbicillactone-A-solutions. RPMI1640-medium without dihydrosorbicillactone and sorbicillactone A was used as a negative control. The final concentrations were 30, 10, and 3 μg/mL sorbicillactone A and dihydrosorbicillactone A. Four parallel settings of each sample were analysed. The cells were incubated for 4 hours at 37° C. After the incubation, the culture plate was centrifuged at […] (˜1200 rpm) for 10 min at room temperature. The supernatant was carefully pipetted off, and the cells were each overlayered with 200 μl lysis-buffer (Roche-Kit). Then, the cells were lysed for 30 min at room temperature. After the lysis, the culture plate was again centrifuged at 200×g (˜1200 rpm) for 10 min at room temperature.
ELISA: Two strips with eight wells each were taken from the streptavidin-ELISA-plate of the Roche-kit. 20 μl of the supernatant of a cell-lysis (see above) were added into each well. In doing so, the samples with 30 or 10 μg/mL of sorbicillactone A and dihydrosorbicillactone A were loaded as 4-fold, and all other as duplicate determinations. In addition to these sample, a positive control (DNA-histone-complex) was loaded. Then, 80 μl of immune reagent were added into each well. This solution consisted of incubation buffer, anti-histone-biotin, and anti-DNA-peroxidase. The incubation buffer was used as a blank value. The ELISA-plate was incubated for 2 hours in a shaking incubator at room temperature. Them the supernatants were carefully removed, and the wells were each washed 3× with 250 μl of the incubation buffer. After the washing, 100 μl of ABTS-solution were added into each “well”. Subsequently, the cells were incubated for 30 min in the dark at room temperature. The measurement took place in a multiscan at an emission wavelength of 405 nm.

SMILES	increase of the 340-/380-nm-values (neuronal cells)	increase of the 340-/380-nm-values, control assumed to be 100% (neuronal cells) [%]	activity relative to sorbicillactone A [1]	MW ± SD (OD) ([2]; 3 μg/mL)	% of the control (negative) ([2]; 3 μg/mL) [%]	MW ± SD (OD) ([2]; 10 μg/mL)	% of the control (negative) ([2]; 10 μg/mL) [%]	MW ± SD (OD) ([2]; 30 μg/mL)	% of the control (negative) ([2]; 30 μg/mL) [%]	induction of apoptosis ([2]; 3, 10, and 30 μg/mL, 4 hours of incubation)
N[C@@H](CCC(=O)O)C(=O)O [L-glutamic acid]	1.715±0.081	307.1								
NCCc1c[nH]c2ccc(O)cc12 [Serotonin, serotonin]	0.971±0.112	219.9								
C/C=C/CC/C(O)=C1/C(=O)C(C)=C(O)[C@@]2(C)OC(=O)[C@@](C)(NC(=O)/C=C/C(=O)O)[C@@H]12 [dihydrosorbicillactone A]			five-fold less active	0.016 ± 0.003	76.2	0.013 ± 0.002	61.9	0.016 ± 0.004	76.2	did not result in an induction of apoptosis; also recorded: did not induce apoptosis
